In patent EP4789680A1, “NOVEL PACE4 INHIBITOR AND USE THEREOF IN ANTI-OSTEOARTHRITIS” (Inflamax Pharmaceuticals Limited, priority 2023, dated 2025):
Where a SMILES comes first, the peptide text is derived from it. Where no end group is shown, it is not given here. [ ]: non-standard residue; d: D form. ξ: configuration not given here. Abu(1-amidino-4-piperidyl) = N=C(N)N1CCC(CC[C@H](N)C(=O)O)CC1; Phe(4-guanidino) = N=C(N)Nc1ccc(C[C@H](N)C(=O)O)cc1; Phe(4-CF3) = N[C@@H](Cc1ccc(C(F)(F)F)cc1)C(=O)O; dThr(3ξ) = CC(O)[C@@H](N)C(=O)O

T1: PACE4 (Homo sapiens, UniProt P29122)
T1 sequence (P29122 150-969): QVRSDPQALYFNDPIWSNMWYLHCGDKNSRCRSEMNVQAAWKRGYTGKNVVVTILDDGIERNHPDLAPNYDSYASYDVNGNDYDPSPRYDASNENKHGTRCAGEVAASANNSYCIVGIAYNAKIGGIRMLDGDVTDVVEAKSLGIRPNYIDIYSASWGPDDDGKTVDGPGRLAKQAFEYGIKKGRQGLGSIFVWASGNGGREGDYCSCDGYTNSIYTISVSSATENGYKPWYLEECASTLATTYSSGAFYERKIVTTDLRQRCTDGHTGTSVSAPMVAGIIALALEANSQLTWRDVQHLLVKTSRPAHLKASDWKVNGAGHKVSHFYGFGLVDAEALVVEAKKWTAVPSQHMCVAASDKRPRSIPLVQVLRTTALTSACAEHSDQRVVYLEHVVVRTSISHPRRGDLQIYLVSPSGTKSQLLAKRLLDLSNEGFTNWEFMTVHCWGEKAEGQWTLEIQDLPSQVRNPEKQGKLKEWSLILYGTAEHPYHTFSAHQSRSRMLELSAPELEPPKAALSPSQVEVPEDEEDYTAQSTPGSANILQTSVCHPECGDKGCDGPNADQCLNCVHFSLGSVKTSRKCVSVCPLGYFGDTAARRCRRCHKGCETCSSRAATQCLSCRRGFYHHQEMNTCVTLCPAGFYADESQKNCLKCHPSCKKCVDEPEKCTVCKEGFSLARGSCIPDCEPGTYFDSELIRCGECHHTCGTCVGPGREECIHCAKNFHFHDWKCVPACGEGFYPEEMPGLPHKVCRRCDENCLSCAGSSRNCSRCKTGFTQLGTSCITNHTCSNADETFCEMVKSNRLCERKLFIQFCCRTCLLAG

T2: PACE4 (UniProt P29122 150-969, limits assumed)
T2 sequence (looked up): T1 sequence (P29122 150-969)

B1: Ac-R-F-K-R-dT-NH2 (peptide)
peptide: Ac-RFKR[dT]-NH2
SMILES: CC(=O)N[C@@H](CCCNC(=N)N)C(=O)N[C@@H](Cc1ccccc1)C(=O)N[C@@H](CCCCN)C(=O)N[C@@H](CCCNC(=N)N)C(=O)N[C@@H](C(N)=O)[C@H](C)O
B2: Ac-R-R-F-K-R-dT-NH2 (peptide)
peptide: Ac-RRFKR[dT]-NH2
SMILES: CC(=O)N[C@@H](CCCNC(=N)N)C(=O)N[C@@H](CCCNC(=N)N)C(=O)N[C@@H](Cc1ccccc1)C(=O)N[C@@H](CCCCN)C(=O)N[C@@H](CCCNC(=N)N)C(=O)N[C@@H](C(N)=O)[C@H](C)O
B3: Ac-dR-R-F-K-R-dT-NH2 (peptide)
peptide: Ac-[dR]RFKR[dT]-NH2
SMILES: CC(=O)N[C@H](CCCNC(=N)N)C(=O)N[C@@H](CCCNC(=N)N)C(=O)N[C@@H](Cc1ccccc1)C(=O)N[C@@H](CCCCN)C(=O)N[C@@H](CCCNC(=N)N)C(=O)N[C@@H](C(N)=O)[C@H](C)O
B4: P-dR-R-F-K-R-dT-NH2 (peptide)
peptide: P[dR]RFKR[dT]-NH2
modifications: N-terminus assumed
SMILES: C[C@H](O)[C@@H](NC(=O)[C@H](CCCNC(=N)N)NC(=O)[C@H](CCCCN)NC(=O)[C@H](Cc1ccccc1)NC(=O)[C@H](CCCNC(=N)N)NC(=O)[C@@H](CCCNC(=N)N)NC(=O)[C@@H]1CCCN1)C(N)=O
B5: dP-dR-R-F-K-R-dT-NH2 (peptide)
peptide: [dP][dR]RFKR[dT]-NH2
modifications: N-terminus assumed
SMILES: C[C@H](O)[C@@H](NC(=O)[C@H](CCCNC(=N)N)NC(=O)[C@H](CCCCN)NC(=O)[C@H](Cc1ccccc1)NC(=O)[C@H](CCCNC(=N)N)NC(=O)[C@@H](CCCNC(=N)N)NC(=O)[C@H]1CCCN1)C(N)=O
B6: Ac-R-F(4-CF3)-K-R-T-NH2 (peptide)
peptide: Ac-R[Phe(4-CF3)]KRT-NH2
SMILES: CC(=O)N[C@@H](CCCNC(=N)N)C(=O)N[C@@H](Cc1ccc(C(F)(F)F)cc1)C(=O)N[C@@H](CCCCN)C(=O)N[C@@H](CCCNC(=N)N)C(=O)N[C@H](C(N)=O)[C@@H](C)O
B7: Ac-R-F(4-CF3)-K-R-dT-NH2 (peptide)
peptide: Ac-R[Phe(4-CF3)]KR[dT]-NH2
SMILES: CC(=O)N[C@@H](CCCNC(=N)N)C(=O)N[C@@H](Cc1ccc(C(F)(F)F)cc1)C(=O)N[C@@H](CCCCN)C(=O)N[C@@H](CCCNC(=N)N)C(=O)N[C@@H](C(N)=O)[C@H](C)O

Columns and labels:
[1] = target: T1, PACE4; test: PACE4 enzyme inhibition experiment (fluorogenic substrate, competitive inhibition); format: biochemical; conditions: substrate pyroGlu-Arg-Val-Lys-Arg-methyl-coumaryl-7-amide 100 µM, pH 6.5, 37°C, 60 min
Description: The PACE4 inhibitory peptides obtained from the above example were subjected to in vitro assay of PACE4 inhibitory effect. The specific steps were as follows: the PACE4 enzyme inhibition experiment was performed in a solution containing 20 mM Bis-Tis at pH 6.5, 1 mM CaCl2, and 1.8 mg/mL BSA. All assays were performed using pyroGlu-Arg-Val-Lys-Arg-methyl-coumaryl-7-amide (Bachem, CA) (100 µM) as the substrate. The assay was conducted at 37°C for 60 min. A Gemini EM 96-well fluorescence spectrometer (Molecular Devices, CA) (Ex: 370 nm, Em: 460 nm) was used. The PACE4 inhibitory peptide involved in the present patent was added to the test solution at different concentrations for competitive inhibition assay to determine the IC50 value of the peptide.

[2] = system: traumatic osteoarthritis model; test: MMT surgery traumatic osteoarthritis model, test for therapeutic efficacy; format: in vivo, Sprague Dawley (SD) rats; conditions: compared to the OA group; intra-articular injection on day 3 and day 10 after MMT surgery; sacrificed day 14
Description: In this example, a traumatic osteoarthritis model was established by performing a medial meniscus tear (MMT) surgery to verify the therapeutic effect of the PACE4 inhibitory peptides on OA. In the test for therapeutic efficacy, the injections were administered on day 3 and day 10 after the surgical modeling (i.e., a total of 2 administrations).
Specifically, in the test for therapeutic efficacy, 24 Sprague Dawley (SD) rats were divided into 3 groups (including a control group, an OA modeling group (surgery group), and an OA modeling + therapeutic administration group (surgery group + drug intervention)), with 8 rats per group. For the OA modeling + therapeutic administration group, intra-articular injections were administered on day 3 and day 10 after MMT surgery. Rats in each group were sacrificed on day 14 after modeling, and joint tissues were collected. Each PACE4 inhibitory peptide was tested individually to determine the therapeutic effect of each PACE4 inhibitory peptide. Among them, the polypeptide Ac-R-F-K-R-NH2 (control molecule) was selected as a control example.
Cartilage tissue was collected from each group as samples. The collected cartilage tissue samples were decalcified according to conventional procedures in the art, then embedded in paraffin, and sectioned at a thickness of 7 µm. Safranin O-fast green staining was performed, and the cartilage degeneration was assessed using OARSI scoring. In addition, TRAP staining was performed to determine the subchondral bone resorption in rats before and after MMT surgery and during treatment with the PACE4 inhibitory peptide.

[3] = target: T2, PACE4; test: cell-based or functional assay

| Molecule | IC50 [1] | IC50 (µM), PACE4 enzyme inhibition, fluorogenic substrate pyroGlu-Arg-Val-Lys-Arg-methyl-coumaryl-7-amide [3] | further results |
| --- | --- | --- | --- |
| CC(=O)N[C@@H](CCCNC(=N)N)C(=O)N[C@@H](CCCNC(=N)N)C(=O)N[C@@H](CCC1CCN(C(=N)N)CC1)C(=O)N[C@@H](CCCCN)C(=O)N[C@@H](CCCNC(=N)N)C(=O)N[C@@H](C(N)=O)C(C)O (stereo partly shown) [Ac-R-R-A(4-Pip)-K-R-dT-NH2] (Ac-RR[Abu(1-amidino-4-piperidyl)]KR[dThr(3ξ)]-NH2) | 90 nM | – | – |
| CC(=O)N[C@@H](CCCNC(=N)N)C(=O)N[C@@H](CCCNC(=N)N)C(=O)N[C@@H](Cc1ccc(C(F)(F)F)cc1)C(=O)N[C@@H](CCCCN)C(=O)N[C@@H](CCCNC(=N)N)C(=O)N[C@@H](C(N)=O)[C@H](C)O [Ac-R-R-F(4-CF3)-K-R-dT-NH2] (Ac-RR[Phe(4-CF3)]KR[dT]-NH2) | 90 nM | – | – |
| CC(=O)N[C@H](CCCNC(=N)N)C(=O)N[C@@H](CCCNC(=N)N)C(=O)N[C@@H](Cc1ccc(C(F)(F)F)cc1)C(=O)N[C@@H](CCCCN)C(=O)N[C@@H](CCCNC(=N)N)C(=O)N[C@@H](C(N)=O)[C@H](C)O [Ac-dR-R-F(4-CF3)-K-R-dT-NH2] (Ac-[dR]R[Phe(4-CF3)]KR[dT]-NH2) | – | – | OARSI score reduced, therapeutic test [2]: 34.6% |
| CC(=O)N[C@H](CCCNC(=N)N)C(=O)N[C@@H](CCCNC(=N)N)C(=O)N[C@@H](Cc1ccc(NC(=N)N)cc1)C(=O)N[C@@H](CCCCN)C(=O)N[C@@H](CCCNC(=N)N)C(=O)N[C@@H](C(N)=O)[C@H](C)O [Ac-dR-R-F(4-Guan)-K-R-dT-NH2] (Ac-[dR]R[Phe(4-guanidino)]KR[dT]-NH2) | – | – | OARSI score reduced, therapeutic test [2]: 38.5% |
| CC(=O)N[C@H](CCCNC(=N)N)C(=O)N[C@@H](CCCNC(=N)N)C(=O)N[C@@H](Cc1ccccc1)C(=O)N[C@@H](CCCCN)C(=O)N[C@@H](CCCNC(=N)N)C(=O)N[C@@H](C(N)=O)[C@H](C)O [Ac-dR-R-F-K-R-dT-NH2] (Ac-[dR]RFKR[dT]-NH2) | – | – | OARSI score reduced, therapeutic test [2]: 28% |
| C[C@H](O)[C@@H](NC(=O)[C@H](CCCNC(=N)N)NC(=O)[C@H](CCCCN)NC(=O)[C@H](Cc1ccc(C(F)(F)F)cc1)NC(=O)[C@H](CCCNC(=N)N)NC(=O)[C@@H](CCCNC(=N)N)NC(=O)[C@@H]1CCCN1)C(N)=O [P-dR-R-F(4-CF3)-K-R-dT-NH2] (H-P[dR]R[Phe(4-CF3)]KR[dT]-NH2) | 20 nM | – | – |
| C[C@H](O)[C@@H](NC(=O)[C@H](CCCNC(=N)N)NC(=O)[C@H](CCCCN)NC(=O)[C@H](Cc1ccccc1)NC(=O)[C@H](CCCNC(=N)N)NC(=O)[C@@H](CCCNC(=N)N)NC(=O)[C@@H]1CCCN1)C(N)=O [P-dR-R-F-K-R-dT-NH2] (H-P[dR]RFKR[dT]-NH2) | 20 nM | – | – |
| C[C@H](O)[C@@H](NC(=O)[C@H](CCCNC(=N)N)NC(=O)[C@H](CCCCN)NC(=O)[C@H](Cc1ccccc1)NC(=O)[C@H](CCCNC(=N)N)NC(=O)[C@@H](CCCNC(=N)N)NC(=O)[C@H]1CCCN1)C(N)=O [dP-dR-R-F-K-R-dT-NH2] (H-[dP][dR]RFKR[dT]-NH2) | 70 nM | – | – |
| C[C@H](O)[C@@H](NC(=O)[C@H](CCCNC(=N)N)NC(=O)[C@H](CCCCN)NC(=O)[C@H](Cc1ccc(C(F)(F)F)cc1)NC(=O)[C@H](CCCNC(=N)N)NC(=O)[C@@H](CCCNC(=N)N)NC(=O)[C@H]1CCCN1)C(N)=O [dP-dR-RF(4-CF3)-K-R-dT-NH2, dP-dR-R-F(4-CF3)-K-R-dT-NH2] (H-[dP][dR]R[Phe(4-CF3)]KR[dT]-NH2) | 20 nM | – | – |
| B1 | – | 5 µM | – |
| B2 | – | 0.46 µM | – |
| B3 | – | 0.19 µM | – |
| B4 | – | 0.02 µM | – |
| B5 | – | 0.07 µM | – |
| B6 | – | 0.74 µM | – |
| B7 | – | 0.35 µM | – |
